Results: patent publication US7067144B2, “Compositions and methods for systemic inhibition of cartilage degradation” (Omeros Corporation, priority 1998, dated 2006)

Key:
experimental OA = conditions: sustained systemic delivery; cited from earlier work
PKC = conditions: read-out: IC50 PKC inhibitory activity; cited from earlier work
NFκB activation = conditions: IL-1-stimulated RSF; cited from earlier work
[1] = system: prostaglandin E2 production in synovial cultures; assay: PGE2 formation in cultured human synovial fibroblasts during overnight IL-1 priming; type: cell-based; conditions: Fibroblast, co-incubation with IL-1 (10 U/ml), 16 hr, mean±SEM
Method: (§1) 1. Cell Culture. […] Experiments were performed on cells from passages 3–8. […] The growth medium was replaced twice weekly.
2. Experimental Treatments.
3. Measurement of Prostaglandin E2. […] Samples were stored at −80° until processing.
1. Data analysis. Immunoassays were routinely performed in duplicate aliquots from each culture. Experimental determinations were performed on duplicate or triplicate cultures. Each experiment was repeated in at least two cell lines. Nonlinear regression curve fitting and statistical analyses were performed using Graph-PAD Prism software (San Diego, Calif.).
The actions of ketoprofen, a cyclooxygenase inhibitor, to attenuate PGE2 formation were determined by co-incubation with IL-1 during prolonged exposure (16 hr); and by brief pre-incubation prior to a subsequent GPCR agonist challenge interval, as shown in FIG. 8.

Type I IL-1R [2] = target: T1, Type I IL-1R (Homo sapiens, UniProt P14778); conditions: in vitro efficacy; cited from earlier work
T1 sequence (P14778 18-569): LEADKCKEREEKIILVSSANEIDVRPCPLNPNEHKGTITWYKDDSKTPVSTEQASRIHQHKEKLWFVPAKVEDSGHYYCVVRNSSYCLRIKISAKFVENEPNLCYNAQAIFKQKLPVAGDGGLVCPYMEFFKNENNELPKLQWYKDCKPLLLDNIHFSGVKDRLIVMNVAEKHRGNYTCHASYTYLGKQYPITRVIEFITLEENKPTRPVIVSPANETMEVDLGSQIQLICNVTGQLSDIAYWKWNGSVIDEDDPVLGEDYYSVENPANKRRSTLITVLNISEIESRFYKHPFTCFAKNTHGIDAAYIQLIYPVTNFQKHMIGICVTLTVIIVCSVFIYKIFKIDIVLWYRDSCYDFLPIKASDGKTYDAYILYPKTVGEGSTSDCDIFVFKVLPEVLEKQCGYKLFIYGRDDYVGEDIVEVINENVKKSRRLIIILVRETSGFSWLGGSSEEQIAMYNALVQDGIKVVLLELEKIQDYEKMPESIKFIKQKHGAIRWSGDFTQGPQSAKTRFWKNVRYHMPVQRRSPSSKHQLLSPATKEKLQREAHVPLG

[3] = in vivo, cited from earlier work
[4] = system: IL-8 production by synoviocyte cultures; assay: IL-8 production by synoviocyte cultures in response to IL-1; type: cell-based, human
Method: as §1
The kinetics of induction of interleukin-6 in response to stimulation with IL-1 are described. Synoviocyte cultures were exposed to the indicated treatments with IL-1 plus either histamine to activate signaling through inositol trisphosphate (InsP3)/protein kinase C pathway or isproterenol to activate increases in intracellular cAMP. Production of PGE2, IL-6, and IL-8 were measured in the culture supernatants following 1, 2, 4, 6, and 24 hr treatments. In this experiment, each treatment interval was performed in a separate culture. […] IL-1 also produced a significant elevation of IL-8 (2000 pg/ml), which was first measurable at 6 hr of treatment.
The effect of ketoprofen on the induction of cytokine production by IL-1 and GPCR agonists was examined. The protocol also tested the effects of IL-1 concentration dependence on the IL-6 steady state induction. Synoviocyte cultures were exposed to indicated concentrations of IL-1 and GPCR agonists. Culture supernatants were collected and replaced with fresh media aliquots containing the same agonist additions at 8-hr intervals. PGE2, IL-6, and IL-8 in the supernatants were assayed as described.

[5] = system: IL-6 production by synovial cultures; assay: IL-6 production by synovial cultures stimulated with IL-1 plus GPCR ligands; type: cell-based, human; conditions: 0.75 μM ketoprofen
Method: FIG. 9 is a graphical representation of the effect of ketoprofen on IL-6 production by synovial cultures at 16 hours in the presence of the indicated concentrations of IL-1 plus the added G-protein coupled receptor ligands. Cultures were incubated for 16 hours with IL-1 at the indicated concentration (0.3, 1.0 and 3.0 pg/ml) in the absence and presence of 0.75 μM ketoprofen in experimental growth medium with one of the following additional receptor ligands: 1) isoproterenol (ISO) at 1.0 μM to activate the camp pathway, or 2) histamine (HIS) at 100 μM to activate the IP3/calcium pathway. Culture supernatants were collected and replaced with fresh media aliquots containing the same agonist additions at 8 hour intervals. Following treatment, the supernatant medium corresponding to the treatment interval from 8 to 16 hours was collected and analyzed for IL-6.
as §1
4. Measurement of IL-6. Production of the cytokine, IL-6, was also measured in aliquots of supernatant culture media which had been stored frozen at −80° C. IL-6 was measured by sandwich ELISA with alkaline phosphatase detection as described by the manufacturer (Pharmingen) and quantitated using standard curves prepared with the respective pure recombinant human cytokines. […]

BMP-4 receptors = conditions: 125I-BMP-4; read-out: apparent dissociation constant; cited from earlier work
Type I IL-1R [6] = target: T1, Type I IL-1R; conditions: cells that express the Type I IL-1R; cited from earlier work
[7] = system: prostaglandin E2 production in synovial cultures; conditions: histamine 100 μM or bradykinin 1 μM; overnight IL-1 (10 U/ml) priming
Method: Cell Culture. Synovial tissue was obtained from osteoarthritis patients undergoing joint replacement surgery through the Clinical Research Center, MacNeal Hospital, and transported to the laboratory in Dulbecco's Modified Eagle's Medium (DMEM) containing penicillin (100 units/ml), streptomycin (100 μg/ml), and fungizone (0.25 μg/ml). The synovium was dissected and minced with scissors, and plated as explants in culture medium composed of DMEM containing L-glutamine (2 mM), heat inactivated fetal bovine serum (10% v/v), plus antibiotics. Cultures were housed at 37° C. in a humidified atmosphere of 5% CO2. Adherent synovial cells grew out of the explants within 2–3 weeks, and were passaged by trypsinization. Seed cultures were fed twice weekly and were passaged at confluency. Experiments were performed on cells from passages 3–8. Experimental cultures were plated into 35 mm dishes at a density of 7.5×10^3 cells/cm^2 in 2 ml culture medium. […]
Measurement of Prostaglandin E2. […] Aliquots of culture supernatant were analyzed by competitive binding radioimmunoassay as specified by the manufacturer (Sigma Chemical Co.), using an antibody with equivalent reactivity toward prostaglandins E2 and E1. For quantitation, a standard curve was prepared with each assay using fixed concentrations of [^3H]prostaglandin E2, and increasing concentrations of authentic competing prostaglandin E2.

[8] = system: rheumatoid synovial fibroblasts (RSF); conditions: concentrations of 10–150 μM; IL-1 or IL-8 stimulated; cited from earlier work
paw inflammation = conditions: dose of 50 mg/kg; cited from earlier work
[9] = system: adjuvant-induced arthritis; conditions: p.o. at 30 and 60 mg/kg/day; cited from earlier work

In the case of CC(=N)NCCCC[C@H](N)C(=O)O [L-NIL], the “effect on progression of experimental OA” value (experimental OA) is listed as “reduces the progression of experimental OA”.
In the case of calphostin C, the IC50 (PKC) is listed as 50000 nM.
In the case of O=C1CCNC(=O)c2[nH]ccc21 [aldisine], the “activity on PGE2 production” value (NFκB activation) is given as “inactive”.
With CCc1cccc2c3c([nH]c12)C(CC)(CC(=O)O)OCC3 (stereo not shown) [etodolac] the IC50 [1] was 15.2 ± 4.6 nM.
For Ac-FEWTPGWYQJYALPL-NH2 [AF12198], the IC50 (Type I IL-1R [2]) is listed as 0.5 to 2 nM and the metabolism ([3]; iv) is listed as “rapid metabolism”.
In the case of Cn1c2ccccc2c2c3c(c4c5ccccc5n(CCC#N)c4c21)CNC3=O [G-6203], the IC50 (PKC) is listed as 2000 to 10000 nM.
In the case of CC(C(=O)O)c1cccc(C(=O)c2ccccc2)c1 (stereo not shown) [ketoprofen], the “effect on IL-8 production in response to IL-1” value [4] is reported as “reduces”, the “effect on IL-6 production in histamine or isoproterenol/IL-1 co-stimulated samples” value ([5]; histamine 100 μM or isoproterenol 1.0 μM plus IL-1) is reported as “inhibited” and the inhibition at 0.75 µM ([5]; Homo sapiens, 1.0 pg/ml IL-1, 16 hr, read-out: inhibition of IL-1-elicited IL-6 production) is reported as at most 50%. For the same compound, the IC50 [1] was 4.5 ± 0.8 nM.
In the case of “BMP-4: bone morphogenetic protein, member of the TGF-β superfamily”, the Kd (BMP-4 receptors) is given as 0.11 nM.
COc1ccc2c(c1)c(CC(=O)O)c(C)n2C(=O)c1ccc(Cl)cc1 [indomethacin] gave an IC50 [1] of 3.2 ± 1.5 nM.
Compound O=C(c1ccccc1)c1ccc2n1CCC2C(=O)O (stereo not shown) [ketorolac] has an IC50 [1] of 2.2 ± 0.4 nM.
For “IL-1Ra: naturally occurring secreted, soluble ligand that binds to IL-1 receptors; 22 kD protein”, the “molar excess required to inhibit IL-1 biological responses” value (Type I IL-1R [6]) is given as 10–100 fold.
In the case of NCCc1c[nH]cn1 [histamine], the “fold increase in PGE2 production compared to IL-1 primed cells receiving no GPCR agonist” value [7] is reported as 5–10 fold.
For c1cnc2c(c1)ccc1cccnc12 [1,10-o-phenanthroline], the “effect on penetration of cartilage by RSF cells” value [8] is given as “substantially inhibited”.
In the case of C[S+]([O-])c1ccc(-c2nc(-c3ccc(F)cc3)c(-c3ccncc3)[nH]2)cc1 (stereo not shown) [SB203580, 4-(4-fluorophenyl)-2-(4-methylsulfinylphenyl)-5-(4-pyridyl)imidazole], the “effect on paw inflammation” value (paw inflammation) is given as “significant inhibition of paw inflammation” and the antiarthritic activity [9] is given as “Antiarthritic activity”.
For Ac-FEWTPGWYQJY-NH2 [AF11567], the plasma half-life [3] is given as 2.3 to 2.6 h.
For CN(C)C[C@H]1CCn2c(c(C3=C(c4cn(C)c5ccccc45)C(=O)NC3=O)c3ccccc32)C1 [RO 32-0432], the “activity on PGE2 production” value (NFκB activation) is listed as “inactive”.
For CC(C)C[C@H](NP(=O)(O)O[C@@H]1O[C@@H](C)[C@H](O)[C@@H](O)[C@H]1O)C(=O)N[C@@H](Cc1c[nH]c2ccccc12)C(=O)O [phosphoramidon], the “effect on penetration of cartilage by RSF cells” value [8] is listed as “substantially inhibited”.
